Entries after “also recorded” stand apart in the source; their conditions may differ.
Experiments:
human GLUT4 = biological target: T1, human GLUT4 (Homo sapiens, UniProt P14672); assay: Glucose entrance counter-flow transport in GLUT4 proteoliposomes; type: biochemical; conditions: 2 mM compound
T1 construct: Full length DNA was subcloned into pFastBac1 (Life Technologies) vector with a N-terminal hexahistidine tag; hexahistidine (N); made in house; host or cells: Sf21 insect cells (baculovirus, pFastBac1)
T1 sequence (P14672 1-509): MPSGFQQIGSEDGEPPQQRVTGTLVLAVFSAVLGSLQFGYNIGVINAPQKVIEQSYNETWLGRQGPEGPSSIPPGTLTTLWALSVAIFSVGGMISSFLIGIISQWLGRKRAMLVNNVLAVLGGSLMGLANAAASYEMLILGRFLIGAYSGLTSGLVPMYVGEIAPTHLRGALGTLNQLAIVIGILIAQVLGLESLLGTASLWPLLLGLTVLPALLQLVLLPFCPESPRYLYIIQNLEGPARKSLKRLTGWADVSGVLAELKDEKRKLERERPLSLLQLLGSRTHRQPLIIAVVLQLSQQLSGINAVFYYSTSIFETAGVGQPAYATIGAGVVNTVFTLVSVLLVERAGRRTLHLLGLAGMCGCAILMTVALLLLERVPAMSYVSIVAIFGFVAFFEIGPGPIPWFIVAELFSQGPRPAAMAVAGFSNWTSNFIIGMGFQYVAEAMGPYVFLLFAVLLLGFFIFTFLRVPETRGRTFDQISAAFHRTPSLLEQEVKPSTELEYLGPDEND
Experimental: (§1) cDNAs of GLUT1, 3, 4 and 5 were purchased from Open Biosystems (GE Healthcare). cDNAs of GLUT2 was a gift from Prof. Graeme Bell at University of Chicago. Full length DNA was subcloned into pFastBac1 (Life Technologies) vector with a N-terminal hexahistidine tag. Bacmids were generated in DH10Bac E. coli cells (Life Technologies). Baculoviruses were produced using Cellfectin II Reagent and amplified in Sf21 insect cells (Life Technologies). Cells were maintained at 26° C., and P1 (10^6 pfu/mL) was collected from infected cells after 72 hours. SF21 cells were propagated in HyClone SFX-Insect media (GE Healthcare), supplemented with 5% fetal bovine serum (Biowest), 4.8 mM glutamine, antibiotics (100 units/mL Penicillin G and 100 μg/mL streptomycin sulfate) and amphotericin B (2.5 μg/mL). […]
(§2) For the entrance counterflow transport in proteoliposomes, the assay was started by the addition of 5 μL proteoliposomes solution (OD600 nm ˜30) to 200 μL, assay solution, containing 10 μM ^14C-radiolabeled glucose (for GLUT1 wild-type or F379H mutant and GLUT2-4) or fructose (for GLUT5 wild-type or H387F mutant and GLUT2) (Moravek Biochemicals) in 100 mM KPi buffer at pH 7.5. After one minute (or different specified time points when the time-dependent counter-flow transport activity was measured), the transport was stopped with ice-chilled quench buffer [0.1 M KPi (pH 5.5) and 0.1 M lithium chloride]. […]

human GLUT3 = biological target: T2, human GLUT3 (Homo sapiens, UniProt P11169); assay: Glucose entrance counter-flow transport in GLUT3 proteoliposomes; type: biochemical; conditions: 2 mM compound
T2 construct: Full length DNA was subcloned into pFastBac1 (Life Technologies) vector with a N-terminal hexahistidine tag; hexahistidine (N); made in house; host or cells: Sf21 insect cells (baculovirus, pFastBac1)
T2 sequence (P11169 1-496): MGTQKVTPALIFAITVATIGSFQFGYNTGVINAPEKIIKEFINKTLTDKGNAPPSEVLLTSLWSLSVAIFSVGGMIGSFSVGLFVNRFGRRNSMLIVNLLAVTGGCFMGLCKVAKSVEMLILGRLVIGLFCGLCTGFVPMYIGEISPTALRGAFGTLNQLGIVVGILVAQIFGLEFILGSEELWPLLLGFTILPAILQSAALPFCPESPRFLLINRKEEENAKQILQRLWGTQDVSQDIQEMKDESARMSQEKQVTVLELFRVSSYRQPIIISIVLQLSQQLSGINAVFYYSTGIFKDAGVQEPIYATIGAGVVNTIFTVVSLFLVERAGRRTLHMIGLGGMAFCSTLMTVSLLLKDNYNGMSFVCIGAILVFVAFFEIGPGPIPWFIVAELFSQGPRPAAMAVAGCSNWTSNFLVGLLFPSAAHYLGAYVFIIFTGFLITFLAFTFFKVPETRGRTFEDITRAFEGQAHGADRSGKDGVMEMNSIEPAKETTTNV
Experimental: as §1, §2

CS(=O)(=O)c1ccc(Nc2ccc3c(c2)OCO3)c([N+](=O)[O-])c1 [MSNBA, N-[4-(methylsulfonyl)-2-nitrophenyl]-1,3-benzodioxol-5-amine]
effect on GLUT4 glucose transport (human GLUT4): did not affect; also recorded: did not influence | effect on GLUT3 glucose transport (human GLUT3): did not affect; also recorded: did not influence

Reference: US10822325B2, “Human GLUT5 specific inhibitors and methods of treatment” (UNM RAINFOREST INNOVATIONS, priority 2015, dated 2020)
